Patent US11427548B2 (Arvinas Operations, Inc., priority 2015, dated 2022)
Like-named read-outs stand apart in the source and are kept apart here. Blank lines part the entries; values can stand above or below the compound they belong to.

Biological target: T1, Androgen Receptor (Homo sapiens, UniProt P10275)
T1 construct: endogenous in cells; host or cells: VCaP cells
T1 sequence (P10275 1-920): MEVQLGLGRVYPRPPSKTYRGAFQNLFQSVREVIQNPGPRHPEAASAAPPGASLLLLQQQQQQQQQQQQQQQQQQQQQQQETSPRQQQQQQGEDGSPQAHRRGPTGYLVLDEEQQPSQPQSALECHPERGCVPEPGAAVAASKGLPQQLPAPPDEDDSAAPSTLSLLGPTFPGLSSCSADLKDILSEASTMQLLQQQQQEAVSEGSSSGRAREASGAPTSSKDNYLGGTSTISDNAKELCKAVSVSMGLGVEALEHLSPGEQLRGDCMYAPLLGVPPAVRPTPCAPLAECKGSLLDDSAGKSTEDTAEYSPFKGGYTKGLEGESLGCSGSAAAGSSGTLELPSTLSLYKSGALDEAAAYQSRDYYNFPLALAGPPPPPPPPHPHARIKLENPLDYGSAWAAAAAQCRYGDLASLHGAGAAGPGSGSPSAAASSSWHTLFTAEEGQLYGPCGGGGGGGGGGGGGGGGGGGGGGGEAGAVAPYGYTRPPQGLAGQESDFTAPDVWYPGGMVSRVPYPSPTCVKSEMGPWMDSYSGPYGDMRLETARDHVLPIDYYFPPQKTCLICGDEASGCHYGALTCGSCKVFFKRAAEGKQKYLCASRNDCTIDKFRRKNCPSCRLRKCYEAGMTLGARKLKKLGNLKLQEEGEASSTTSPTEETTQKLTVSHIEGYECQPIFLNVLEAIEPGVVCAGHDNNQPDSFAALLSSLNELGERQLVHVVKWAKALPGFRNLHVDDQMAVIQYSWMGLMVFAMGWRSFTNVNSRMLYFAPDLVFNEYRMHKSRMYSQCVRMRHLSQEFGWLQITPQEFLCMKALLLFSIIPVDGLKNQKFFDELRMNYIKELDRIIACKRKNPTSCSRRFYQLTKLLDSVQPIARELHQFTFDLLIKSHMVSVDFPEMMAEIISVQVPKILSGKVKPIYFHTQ
Experiment: Androgen Receptor ELISA assay (PathScan AR ELISA) in VCaP cells: AR degradation, Dmax and DC50
Type: cell-based
Outline: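 VCaP cells, 30,000/well, grown ≥3 days in phenol red-free RPMI with 5% charcoal-stripped FBS; compound added in 0.1% DMSO with 0.1 nM R1881, 7 half-log doses, 24 h. Lysate AR quantified by PathScan sandwich ELISA, HRP/TMB read at 450 nm, giving DC50 and Dmax.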

[1] = VCaP cells; Table 36; read-out: VCaP DC50
[2] = VCaP, VCaP cells; Table 36; read-out: VCaP Dmax (%)
[3] = VCaP, VCaP cells; Table 35; read-out: VCaP Dmax (%)
[4] = VCaP cells; Table 35; read-out: VCaP DC50
[5] = read-out: VCaP DC50; concentration that caused 50% Androgen Receptor degradation, VCaP cells (Table 32)

Structure (SMILES): Cc1ncsc1-c1ccc([C@H](C)NC(=O)[C@@H]2C[C@@H](O)CN2C(=O)[C@H](C(C)C)n2cc(OCCCOCCCCCOc3ccc(N4C(=S)N(c5ccc(C#N)c(C(F)(F)F)c5)C(=O)C4(C)C)cc3)cn2)cc1 [Example 435]
- DC50 (read-out: VCaP DC50; VCaP cells; Table 35): > 0.501 µM

Structure (SMILES): Cc1ncoc1-c1ccc(CNC(=O)[C@@H]2C[C@@H](O)CN2C(=O)[C@@H](NC(=O)COCCCOCCCCOc2ccc(N3C(=S)N(c4ccc(C#N)c(Cl)c4)C(=O)C3(C)C)cc2F)C(C)(C)C)cc1 [Example 44, (2S,4R)-1-[(2S)-2-{2-[3-(4-{4-[3-(3-chloro-4-cyanophenyl)-5,5-dimethyl-4-oxo-2-sulfanylideneimidazolidin-1-yl]-2-fluorophenoxy}butoxy)propoxy]acetamido}-3,3-dimethylbutanoyl]-4-hydroxy-N-{[4-(4-methyl-1,3-oxazol-5-yl)phenyl]methyl}pyrrolidine-2-carboxamide]
- Dmax (VCaP, read-out: VCaP Dmax (%)): > 71%
- DC50 (read-out: VCaP DC50; concentration that caused 50% Androgen Receptor degradation, VCaP cells): < 0.05 µM

Structure (SMILES): Cc1ncsc1-c1ccc(CNC(=O)[C@@H]2C[C@@H](O)CN2C(=O)[C@@H](NC(=O)COCCCOCCCCCOc2ccc(N3C(=S)N(c4ccccc4)C(=O)C3(C)C)cc2)C(C)(C)C)cc1 [Example 477]
- Dmax [3]: < 25%

Structure (SMILES): Cc1ncsc1-c1ccc([C@H](C)NC(=O)[C@@H]2C[C@@H](O)CN2C(=O)[C@@H](NC(=O)C(=O)N2CCN(CCOc3ccc(C(=O)N[C@H]4C(C)(C)[C@H](Oc5ccc(C#N)c(C(F)(F)F)c5)C4(C)C)cc3)CC2)C(C)(C)C)cc1 [Example 679, (2S,4R)-1-((S)-2-(2-(4-(2-(4-(((1r,3r)-3-(4-cyano-3-(trifluoromethyl)phenoxy)-2,2,4,4-tetramethylcyclobutyl)carbamoyl)phenoxy)eth-yl)piperazin-1-yl)-2-oxoacetamido)-3,3-dimethylbutanoyl)-4-hydroxy-N-((S)-1-(4-(4-methylthiazol-5-yl)phenyl)ethyl)pyrrolidine-2-carboxamide]
- DC50 [1]: > 0.501 µM

Structure (SMILES): Cc1ncsc1-c1ccc(C(CO)NC(=O)[C@@H]2C[C@@H](O)CN2C(=O)[C@@H](NC(=O)CCC(F)(F)CN2CCN(c3ccc(C(=O)N[C@H]4C(C)(C)[C@H](Oc5ccc(C#N)c(Cl)c5)C4(C)C)cn3)CC2)C(C)(C)C)cc1 (stereo partly drawn) [Example 800, N-((1r,3r)-3-(3-chloro-4-cyanophenoxy)-2,2,4,4-tetramethylcyclobutyl)-6-(4-(2,2-difluoro-5-(((S)-1-((2S,4R)-4-hydroxy-2-(((R)-2-hydroxy-1-(4-(4-methylthiazol-5-yl)phenyl)ethyl)carbamoyl)pyrrolidin-1-yl)-3,3-dimethyl-1-oxobutan-2-yl)amino)-5-oxopentyl)piperazin-1-yl)nicotinamide]
- DC50 [1]: < 0.05 µM
- Dmax [2]: > 71%

Structure (SMILES): Cc1ncsc1-c1ccc([C@H](C)NC(=O)[C@@H]2C[C@@H](O)CN2C(=O)[C@@H](c2cc(CCCCN3CCN(c4ccc(C(=O)N[C@H]5C(C)(C)[C@H](Oc6ccc(C#N)c(Cl)c6)C5(C)C)cn4)CC3)no2)C(C)C)cc1 [Example 831, N-((1r,3r)-3-(3-chloro-4-cyanophenoxy)-2,2,4,4-tetramethylcyclobutyl)-6-(4-(4-(5-((R)-1-((2S, 4R)-4-hydroxy-2-(((S)-1-(4-(4-methylthiazol-5-yl)phenyl)ethyl)carbamoyl)pyrrolidin-1-yl)-3-methyl-1-oxobutan-2-yl)isoxazol-3-yl)butyl)piperazin-1-yl)nicotinamide]
- DC50 [1]: < 0.05 µM
- Dmax (VCaP, read-out: VCaP Dmax (%), VCaP cells; Table 36): > 71%

Structure (SMILES): Cc1ncsc1-c1ccc([C@H](C)NC(=O)[C@@H]2C[C@@H](O)CN2C(=O)[C@@H](NC(=O)CN[C@H]2C[C@H](N3CCN(c4ccc(C(=O)N[C@H]5C(C)(C)[C@H](Oc6ccc(C#N)c(Cl)c6)C5(C)C)cn4)CC3)C2)C(C)(C)C)cc1 [Example 860, N-((1r,3R)-3-(3-chloro-4-cyanophenoxy)-2,2,4,4-tetramethylcyclobutyl)-6-(4-((1S,3R)-3-((2-(((S)-1-((2S,4R)-4-hydroxy-2-(((S)-1-(4-(4-methylthiazol-5-yl)phenyl)ethyl)carbamoyl)pyrrolidin-1-yl)-3,3-dimethyl-1-oxobutan-2-yl)amino)-2-oxoethyl)amino)cyclobutyl)piperazin-1-yl)nicotinamide]
- DC50 [1]: < 0.05 µM
- Dmax (VCaP, read-out: VCaP Dmax (%)): 51 to 70%

Structure (SMILES): CC(C)(C)[C@H](NC(=O)COCCCCOc1ccc(-c2ccc(N3C(=S)N(c4ccc(C#N)c(Cl)c4)C(=O)C3(C)C)cc2)cc1)C(=O)N1C[C@H](O)C[C@H]1C(=O)NCc1ccc(-c2cncs2)cc1 [Example 111, (2S,4R)-1-[(2S)-2-{2-[4-(4-{4-[3-(3-chloro-4-cyanophenyl)-5,5-dimethyl-4-oxo-2-sulfanylideneimidazolidin-1-yl]phenyl}phenoxy)butoxy]acetamido}-3,3-dimethylbutanoyl]-4-hydroxy-N-{[4-(1,3-thiazol-5-yl)phenyl]methyl}pyrrolidine-2-carboxamide]
- Dmax (VCaP, read-out: VCaP Dmax (%)): > 71%
- DC50 [5]: < 0.05 µM

Structure (SMILES): CC(C)(C)[C@H](NC(=O)COCCCCOc1ccc(-c2ccc(N3C(=S)N(c4ccc(C#N)c(Cl)c4)C(=O)C3(C)C)cc2)c(F)c1)C(=O)N1C[C@H](O)C[C@H]1C(=O)NCc1ccc(-c2cnco2)cc1 [Example 121, (2S,4R)-1-[(2S)-2-{2-[4-(4-{4-[3-(3-chloro-4-cyanophenyl)-5,5-dimethyl-4-oxo-2-sulfanylideneimidazolidin-1-yl]phenyl}-3-fluorophenoxy)butoxy]acetamido}-3,3-dimethylbutanoyl]-4-hydroxy-N-{[4-(1,3-oxazol-5-yl)phenyl]methyl}pyrrolidine-2-carboxamide]
- Dmax (VCaP, read-out: VCaP Dmax (%)): > 71%
- DC50 [5]: < 0.05 µM

Next, values leading:

- DC50 [1]: < 0.05 µM
- Dmax [2]: > 71%
Structure (SMILES): Cc1ncsc1-c1ccc([C@H](CO)NC(=O)[C@@H]2C[C@@H](O)CN2C(=O)[C@@H](NC(=O)CN2CCN(CCCCc3ccc(C(=O)N[C@H]4C(C)(C)[C@H](Oc5ccc(C#N)c(Cl)c5)C4(C)C)cc3)CC2)C(C)(C)C)cc1 [Example 859, (2S,4R)-1-((S)-2-(2-(4-(4-(4-(((1r,3r)-3-(3-chloro-4-cyanophenoxy)-2,2,4,4-tetramethylcyclobutyl)carbamoyl)phenyl)butyl)piperazin-1-yl)acetamido)-3,3-dimethylbutanoyl)-4-hydroxy-N-((R)-2-hydroxy-1-(4-(4-methylthiazol-5-yl)phenyl)ethyl) pyrrolidine-2-carboxamide]

- DC50 [4]: < 0.05 µM
- Dmax [3]: > 71%
Structure (SMILES): Cc1ncsc1-c1ccc(CNC(=O)[C@@H]2C[C@@H](O)CN2C(=O)[C@@H](NC(=O)COCCNc2ccc(-c3c(F)cc(C(=O)N[C@H]4C(C)(C)[C@H](Oc5ccc(C#N)c(Cl)c5)C4(C)C)cc3F)cn2)C(C)(C)C)cc1 [Example 513]

- DC50 [4]: < 0.05 µM
- Dmax [3]: > 71%
Structure (SMILES): Cc1ncsc1-c1ccc([C@H](C)NC(=O)[C@@H]2C[C@@H](O)CN2C(=O)[C@@H](NC(=O)COCC2CCN(c3ccc(C(=O)N[C@H]4C(C)(C)[C@H](Oc5ccc(C#N)c(Cl)c5)C4(C)C)cn3)CC2)C(C)(C)C)cc1 [Example 442]

- DC50 [4]: < 0.05 µM
- Dmax [3]: > 71%
Structure (SMILES): CNC[C@H](NC(=O)[C@@H]1C[C@@H](O)CN1C(=O)[C@@H](NC(=O)COCCCCCOc1ccc(C(=O)N[C@H]2C(C)(C)[C@H](Oc3ccc(C#N)c(Cl)c3)C2(C)C)cc1)C(C)(C)C)c1ccc(-c2scnc2C)cc1 [Example 515]

- DC50 [4]: < 0.05 µM
- Dmax [3]: > 71%
Structure (SMILES): Cc1ncsc1-c1ccc(CNC(=O)[C@@H]2C[C@@H](O)CN2C(=O)[C@@H](NC(=O)COCCOc2ccc(-c3c(F)cc(C(=O)N[C@H]4C(C)(C)[C@H](Oc5ccc(C#N)c(Cl)c5)C4(C)C)cc3F)cc2)C(C)(C)C)cc1 [Example 543]
